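Test compounds were applied to cells in 96-well plates for 48 hours at 5 doses. GI50 = concentration required for 50% inhibition of growth.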 Activity calls are given as the source filed them. No stated cut-off is given here; in the data, active = GI50 up to about 1.1 µM and inactive = higher.
Experiments:
Assay in all cases: inhibition of tumour cell growth, NCI panel, 48 h
SF-268 = tested on: SF-268
LOX IMVI = tested on: LOX IMVI
NCI-H460 = tested on: NCI-H460
OVCAR-5 = tested on: OVCAR-5
HL-60 = tested on: HL-60
SK-MEL-5 = tested on: SK-MEL-5
HT-29 = tested on: HT-29
DLD-1 = tested on: DLD-1
HCC 2998 = tested on: HCC 2998
TK-10 = tested on: TK-10
OVCAR-3 = tested on: OVCAR-3
786-0 = tested on: 786-0
Malme-3M = tested on: Malme-3M
SNB-19 = tested on: SNB-19
NCI-H226 = tested on: NCI-H226
SF-539 = tested on: SF-539
MDA-MB-435 = tested on: MDA-MB-435
Hs-578T = tested on: Hs-578T
SNB-75 = tested on: SNB-75
DU-145 = tested on: DU-145

Measured: GI50

CC(=O)O/N=C/c1cc2c(cc1Br)OCO2
inactive: SF-268 > 349 µM | LOX IMVI > 349 µM | NCI-H460 > 349 µM | OVCAR-5 > 349 µM | HL-60 > 349 µM | SK-MEL-5 > 349 µM | HT-29 > 349 µM | DLD-1 > 349 µM | HCC 2998 > 349 µM | TK-10 > 349 µM | OVCAR-3 137 µM | 786-0 > 349 µM | Malme-3M > 349 µM

CCCCCCCC(=O)OCC(COC(=O)C(C)(C)C)OC(=O)Cc1ccccc1 (configuration not stated)
inactive: SF-268 > 100 µM | LOX IMVI > 100 µM | NCI-H460 > 100 µM | OVCAR-5 > 100 µM | HL-60 > 100 µM | SK-MEL-5 > 100 µM | SNB-19 > 100 µM | NCI-H226 > 100 µM | DLD-1 > 100 µM | HCC 2998 > 100 µM | TK-10 > 100 µM | OVCAR-3 58.3 µM | 786-0 > 100 µM | Malme-3M > 100 µM

CCCCCCCC/C=C\CCCCCCCC(=O)NCCN(CCN)C(=O)CCCCCCC/C=C\CCCCCCCC
inactive: SF-268 > 100 µM | LOX IMVI > 100 µM | NCI-H460 > 100 µM | OVCAR-5 > 100 µM | HL-60 > 100 µM | SK-MEL-5 > 100 µM | HT-29 > 100 µM | SNB-19 > 100 µM | NCI-H226 > 100 µM | DLD-1 > 100 µM | HCC 2998 > 100 µM | TK-10 > 100 µM | OVCAR-3 78.7 µM | 786-0 > 100 µM | Malme-3M > 100 µM

CCCCCCCCOCC(O)COC(C)C (configuration not stated)
inactive: SF-268 39.1 µM | LOX IMVI 25.8 µM | NCI-H460 42.6 µM | OVCAR-5 > 100 µM | HL-60 14.9 µM | SK-MEL-5 26.2 µM | HT-29 50.7 µM | SNB-19 74.6 µM | NCI-H226 70 µM | DLD-1 89.7 µM | HCC 2998 26.6 µM | TK-10 > 100 µM | OVCAR-3 16.2 µM | 786-0 45.7 µM | Malme-3M 61.7 µM

CCC12CCCNC1c1c(n(C)c3ccccc13)C(C(=O)OC)C2 (configuration not stated)
inactive: SF-268 85.5 µM | LOX IMVI 93.1 µM | NCI-H460 76.9 µM | OVCAR-5 67 µM | HL-60 72.9 µM | SK-MEL-5 36.6 µM | HT-29 38.1 µM | SNB-19 95.5 µM | NCI-H226 126 µM | DLD-1 76.4 µM | SF-539 108 µM | HCC 2998 67.8 µM | TK-10 116 µM | OVCAR-3 11.2 µM | 786-0 93.8 µM | Malme-3M 80.2 µM

COc1cc2cc3c4c(cc(OC)c(OC)c4c2cc1OC)CCN3C(=O)CCC(=O)O
inactive: SF-268 > 100 µM | LOX IMVI > 100 µM | OVCAR-5 > 100 µM | HL-60 > 100 µM | SK-MEL-5 > 100 µM | HT-29 > 100 µM | SNB-19 > 100 µM | NCI-H226 > 100 µM | DLD-1 > 100 µM | SF-539 > 100 µM | HCC 2998 > 100 µM | TK-10 > 100 µM | OVCAR-3 > 100 µM | 786-0 > 100 µM | Malme-3M > 100 µM

COC(OC)C1(c2ccccc2)Oc2ccccc2C1=O (configuration not stated)
inactive: SF-268 > 100 µM | LOX IMVI > 100 µM | MDA-MB-435 > 100 µM | NCI-H460 > 100 µM | OVCAR-5 > 100 µM | HL-60 > 100 µM | SK-MEL-5 65.6 µM | HT-29 > 100 µM | SNB-19 > 100 µM | NCI-H226 > 100 µM | Hs-578T > 100 µM | SF-539 > 100 µM | SNB-75 > 100 µM | HCC 2998 > 100 µM | TK-10 > 100 µM | OVCAR-3 > 100 µM | DU-145 > 100 µM | 786-0 > 100 µM | Malme-3M > 100 µM

O=[N+]([O-])c1cc(CCl)ccc1CCl
inactive: SF-268 1.99 µM | LOX IMVI 1.85 µM | MDA-MB-435 2.12 µM | NCI-H460 3.44 µM | OVCAR-5 2.62 µM | HL-60 2.11 µM | SK-MEL-5 2.67 µM | HT-29 1.71 µM | SNB-19 1.89 µM | NCI-H226 3.78 µM | Hs-578T 2.72 µM | SF-539 2.56 µM | SNB-75 2.13 µM | HCC 2998 2.48 µM | TK-10 2.96 µM | OVCAR-3 1.87 µM | DU-145 1.63 µM | 786-0 1.67 µM | Malme-3M 1.74 µM

O=C(O)C(Cl)(c1ccccc1)c1ccccc1
inactive: SF-268 > 100 µM | LOX IMVI > 100 µM | MDA-MB-435 > 100 µM | NCI-H460 > 100 µM | OVCAR-5 > 100 µM | HL-60 > 100 µM | SK-MEL-5 > 100 µM | HT-29 > 100 µM | SNB-19 > 100 µM | NCI-H226 > 100 µM | Hs-578T > 100 µM | SF-539 > 100 µM | SNB-75 > 100 µM | HCC 2998 > 100 µM | TK-10 > 100 µM | OVCAR-3 > 100 µM | DU-145 > 100 µM | 786-0 > 100 µM | Malme-3M > 100 µM

O=c1c2ccccc2nc(-c2ccccc2)n1/N=C/c1ccccc1[N+](=O)[O-]
inactive: SF-268 16.3 µM | LOX IMVI > 100 µM | MDA-MB-435 > 100 µM | NCI-H460 > 91.2 µM | OVCAR-5 > 100 µM | HL-60 > 100 µM | SK-MEL-5 > 75.2 µM | HT-29 > 100 µM | SNB-19 17 µM | NCI-H226 61.1 µM | Hs-578T 1.59 µM | SF-539 19.9 µM | SNB-75 7.41 µM | HCC 2998 > 100 µM | TK-10 28.3 µM | OVCAR-3 > 100 µM | DU-145 > 100 µM | 786-0 21.9 µM | Malme-3M > 100 µM

CCOC(=O)c1c(Nc2ccccc2)sc2cccnc12
inactive: SF-268 29.9 µM | LOX IMVI 18.2 µM | MDA-MB-435 22.6 µM | NCI-H460 2.25 µM | OVCAR-5 12.4 µM | HL-60 15.1 µM | SK-MEL-5 3.56 µM | HT-29 5.48 µM | SNB-19 7.66 µM | NCI-H226 5.68 µM | Hs-578T 35.3 µM | SF-539 1.43 µM | SNB-75 19.9 µM | HCC 2998 3.24 µM | TK-10 11.2 µM | OVCAR-3 17.4 µM | DU-145 28.7 µM | 786-0 11.6 µM | Malme-3M 30.3 µM

CC(C)(C)c1ccc(OCCOc2ccc(C(C)(C)C)cc2N)c(N)c1
inactive: SF-268 > 100 µM | LOX IMVI 27.8 µM | MDA-MB-435 > 100 µM | NCI-H460 > 100 µM | OVCAR-5 > 100 µM | HL-60 > 100 µM | SK-MEL-5 > 100 µM | HT-29 10 µM | SNB-19 > 100 µM | NCI-H226 > 100 µM | Hs-578T 24.2 µM | SF-539 > 100 µM | SNB-75 47.8 µM | HCC 2998 > 100 µM | TK-10 69.3 µM | OVCAR-3 > 100 µM | DU-145 > 100 µM | 786-0 29.9 µM | Malme-3M 22.2 µM

From ChEMBL document CHEMBL1201862, “PubChem BioAssay data set” (2004)
